From US6803480B2, “Diphenylmethane derivatives” (Bayer Aktiengesellschaft, priority 2000, dated 2004)

Experiment: T3 promoter assay cell test (luciferase reporter)
Assay type: cell-based
Conditions: Homo sapiens; HepG2 cells, luciferase induction, costimulator retinoic acid, incubation 48 or 72 hours, four replicates
Method: Their activity can be tested, for example, in vitro by the following T3 promoter assay cell test:
The test is carried out with a stably transfected human HepG2 hepatocarcinoma cell which expresses a luciferase gene under the control of a thyroid hormone-regulated promoter. The vector used for the transfection has upstream of the luciferase gene a minimal thymidine kinase promoter with a thyroid hormone-responsive element (TRE) which consists of two inverted palindromes each of 12 bp and of an 8 bp spacer.
For the test, the cell cultures are seeded in Eagle's minimal essential medium in 96-well plates with the following additions: glutamine, tricine, sodium pyruvate, nonessential amino acids, insulin, selenium and transferrin. The cultures are grown at 37° C. with a 10% CO2 atmosphere for 48 hours. Then serial dilutions of test substance or reference compound (T3, T4) and costimulator retinoic acid are added to the test cultures and the latter are incubated as previously for a further 48 or 72 hours. Each substance concentration is tested in four replicates. To determine the luciferase induced by T3 or other substances, the cells are subsequently lysed by adding a Triton- and luciferin-containing buffer and measured immediately in a luminometer. The EC50 values for each compound are calculated (see Table 1).

`Cc1cc(NC(=O)C(=O)O)cc(C)c1Cc1ccc(O)c(C(C)C)c1` [Example 2, 2-[4-(4-Hydroxy-3-isopropylbenzyl)-3,5-dimethylanilino]-2-oxoacetic acid] showed an EC50 of 0.14 nM.
With `COc1ccc(Cc2c(C)cc(NC(=O)C(=O)O)cc2C)cc1Cc1ccc(F)cc1` [Example 5, ({4-[3-(4-Fluorobenzyl)-4-methoxybenzyl]-3,5-dimethylphenyl}amino)(oxo)acetic acid] the EC50 was 4.3 nM.
With `Cc1cc(NC(=O)C(=O)O)cc(C)c1Cc1ccc(O)c(Cc2ccc(F)cc2)c1` [Example 4, ({4-[3-(4-Fluorobenzyl)-4-hydroxybenzyl]-3,5-dimethylphenyl}amino)(oxo)acetic acid] the EC50 was 0.23 nM.
